Source: ChEMBL document CHEMBL1201862, “PubChem BioAssay data set” (2004)
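In this assay, cells in 96-well plates receive the compound at five concentrations for 48 hours. Endpoints are linearly interpolated between the surrounding concentrations. GI50 is the concentration that inhibits growth by half.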 Active and inactive are the calls of the source. No stated cut-off is given here; in the data, active = GI50 up to about 1.1 µM and inactive = higher.

Legend:
Assay in all cases: growth of human tumour cells (NCI), 48 h
786-0 = tested on: 786-0
A498 = tested on: A498
A549 = tested on: A549
ACHN = tested on: ACHN
BT-549 = tested on: BT-549
CAKI-1 = tested on: CAKI-1
CCRF-CEM = tested on: CCRF-CEM
COLO 205 = tested on: COLO 205
DU-145 = tested on: DU-145
EKVX = tested on: EKVX
HCC 2998 = tested on: HCC 2998
HCT-116 = tested on: HCT-116
HCT-15 = tested on: HCT-15
HL-60 = tested on: HL-60
HOP-62 = tested on: HOP-62
HOP-92 = tested on: HOP-92
HT-29 = tested on: HT-29
Hs-578T = tested on: Hs-578T
IGROV-1 = tested on: IGROV-1
K562 = tested on: K562
KM12 = tested on: KM12
LOX IMVI = tested on: LOX IMVI
M14 = tested on: M14
MCF7 = tested on: MCF7
MDA-MB-231 = tested on: MDA-MB-231
MDA-MB-435 = tested on: MDA-MB-435
MDA-N = tested on: MDA-N
MOLT-4 = tested on: MOLT-4
Malme-3M = tested on: Malme-3M
NCI-H226 = tested on: NCI-H226
NCI-H23 = tested on: NCI-H23
NCI-H460 = tested on: NCI-H460
NCI-H522 = tested on: NCI-H522
NCI/ADR-RES = tested on: NCI/ADR-RES
OVCAR-3 = tested on: OVCAR-3
OVCAR-4 = tested on: OVCAR-4
OVCAR-5 = tested on: OVCAR-5
OVCAR-8 = tested on: OVCAR-8
PC-3 = tested on: PC-3
RPMI-8226 = tested on: RPMI-8226
RXF 393 = tested on: RXF 393
SF-268 = tested on: SF-268
SF-295 = tested on: SF-295
SF-539 = tested on: SF-539
SK-MEL-28 = tested on: SK-MEL-28
SK-MEL-2 = tested on: SK-MEL-2
SK-MEL-5 = tested on: SK-MEL-5
SK-OV-3 = tested on: SK-OV-3
SN12C = tested on: SN12C
SNB-19 = tested on: SNB-19
SNB-75 = tested on: SNB-75
SR = tested on: SR
SW-620 = tested on: SW-620
T47D = tested on: T47D
TK-10 = tested on: TK-10
U-251 = tested on: U-251
UACC-257 = tested on: UACC-257
UACC-62 = tested on: UACC-62
UO-31 = tested on: UO-31

COc1ccc(C[C@@H]2OC3(C=CC(=O)C=C3)O[C@H]2Cc2ccc(OC)cc2)cc1
GI50 (786-0): 184 nM (active) | GI50 (A498): 5530 nM (inactive) | GI50 (A549): 3100 nM (inactive) | GI50 (ACHN): 405 nM (active) | GI50 (BT-549): 221 nM (active) | GI50 (CAKI-1): 354 nM (active) | GI50 (CCRF-CEM): 140 nM (active) | GI50 (COLO 205): 1430 nM (inactive) | GI50 (DU-145): 1480 nM (inactive) | GI50 (EKVX): 1890 nM (inactive) | GI50 (HCC 2998): 1520 nM (inactive) | GI50 (HCT-116): 133 nM (active) | GI50 (HCT-15): 255 nM | GI50 (HL-60): 1520 nM (inactive) | GI50 (HOP-62): 1590 nM (inactive) | GI50 (HOP-92): 653 nM (active) | GI50 (HT-29): 766 nM (active) | GI50 (Hs-578T): 971 nM (active) | GI50 (IGROV-1): 317 nM (active) | GI50 (K562): 610 nM (active) | GI50 (KM12): 1910 nM (inactive) | GI50 (LOX IMVI): 172 nM (active) | GI50 (M14): 889 nM (active) | GI50 (MCF7): 558 nM (active) | GI50 (MDA-MB-231): 1390 nM (inactive) | GI50 (MDA-MB-435): 1530 nM (inactive) | GI50 (MDA-N): 476 nM (active) | GI50 (MOLT-4): 173 nM (active) | GI50 (Malme-3M): 1510 nM (inactive) | GI50 (NCI-H226): 232 nM (active) | GI50 (NCI-H23): 1370 nM (inactive) | GI50 (NCI-H460): 7140 nM (inactive) | GI50 (NCI-H522): 147 nM (active) | GI50 (NCI/ADR-RES): 822 nM (active) | GI50 (OVCAR-3): 673 nM (active) | GI50 (OVCAR-4): 957 nM (active) | GI50 (OVCAR-5): 832 nM (active) | GI50 (OVCAR-8): 193 nM (active) | GI50 (PC-3): 1330 nM (inactive) | GI50 (RPMI-8226): 202 nM (active) | GI50 (RXF 393): 277 nM (active) | GI50 (SF-268): 771 nM (active) | GI50 (SF-295): 2990 nM (inactive) | GI50 (SF-539): 1140 nM (inactive) | GI50 (SK-MEL-28): 1710 nM (inactive) | GI50 (SK-MEL-2): 1380 nM (inactive) | GI50 (SK-MEL-5): 1520 nM (inactive) | GI50 (SK-OV-3): 6150 nM (inactive) | GI50 (SN12C): 1050 nM (active) | GI50 (SNB-19): 1820 nM (inactive) | GI50 (SNB-75): 1680 nM (inactive) | GI50 (SR): 176 nM (active) | GI50 (SW-620): 114 nM (active) | GI50 (T47D): 291 nM (active) | GI50 (TK-10): 281 nM (active) | GI50 (U-251): 1280 nM (inactive) | GI50 (UACC-257): 1460 nM (inactive) | GI50 (UACC-62): 1720 nM (inactive) | GI50 (UO-31): 290 nM (active)

COC(=O)[C@H]1[C@@H](O)[C@@]2(O)c3c(OC)cc(OC)cc3O[C@@]2(c2ccc3c(c2)OCO3)[C@@H]1c1ccccc1
GI50 (786-0): 6.25 nM (active) | GI50 (A498): 14.4 nM (active) | GI50 (A549): < 5 nM (active) | GI50 (ACHN): < 5 nM (active) | GI50 (BT-549): 21.9 nM (active) | GI50 (CAKI-1): 8.93 nM (active) | GI50 (CCRF-CEM): 6.07 nM (active) | GI50 (COLO 205): 7.36 nM (active) | GI50 (DU-145): 8.73 nM (active) | GI50 (EKVX): 17 nM (active) | GI50 (HCC 2998): 8.38 nM (active) | GI50 (HCT-116): < 5 nM (active) | GI50 (HCT-15): < 5 nM | GI50 (HL-60): 6.29 nM (active) | GI50 (HOP-62): 8.79 nM (active) | GI50 (HOP-92): 40.8 nM (active) | GI50 (HT-29): < 5 nM (active) | GI50 (Hs-578T): 14.6 nM (active) | GI50 (IGROV-1): 5.18 nM (active) | GI50 (K562): < 5 nM (active) | GI50 (KM12): < 5 nM (active) | GI50 (LOX IMVI): 5.25 nM (active) | GI50 (M14): 6.03 nM (active) | GI50 (MCF7): < 5 nM (active) | GI50 (MDA-MB-231): 13.6 nM (active) | GI50 (MDA-MB-435): 6.03 nM (active) | GI50 (MDA-N): 5.13 nM (active) | GI50 (MOLT-4): < 5 nM (active) | GI50 (Malme-3M): 16.8 nM (active) | GI50 (NCI-H226): 13.6 nM (active) | GI50 (NCI-H23): 6.17 nM (active) | GI50 (NCI-H460): < 5 nM (active) | GI50 (NCI-H522): < 12.2 nM (active) | GI50 (NCI/ADR-RES): 8.93 nM (active) | GI50 (OVCAR-3): 22.5 nM (active) | GI50 (OVCAR-4): 14.9 nM (active) | GI50 (OVCAR-5): 9.53 nM (active) | GI50 (OVCAR-8): 25.3 nM (active) | GI50 (PC-3): 11.3 nM (active) | GI50 (RPMI-8226): < 5 nM (active) | GI50 (RXF 393): 64.7 nM (active) | GI50 (SF-268): 11.7 nM (active) | GI50 (SF-295): 5.78 nM (active) | GI50 (SF-539): < 5 nM (active) | GI50 (SK-MEL-28): 8.15 nM (active) | GI50 (SK-MEL-2): 20.7 nM (active) | GI50 (SK-MEL-5): 7.57 nM (active) | GI50 (SK-OV-3): 5.39 nM (active) | GI50 (SN12C): 7.6 nM (active) | GI50 (SNB-19): < 5 nM (active) | GI50 (SNB-75): 14.6 nM (active) | GI50 (SR): < 5 nM (active) | GI50 (SW-620): < 5 nM (active) | GI50 (T47D): 5.16 nM (active) | GI50 (TK-10): 6.84 nM (active) | GI50 (U-251): 7.06 nM (active) | GI50 (UACC-257): 8.26 nM (active) | GI50 (UACC-62): 22.2 nM (active) | GI50 (UO-31): 6.04 nM (active)
